We go through 1 molecule from patent publication US11629160B2, “Corrole-based frameworks and methods of use thereof” (University of South Florida, priority 2019, dated 2023).

The data set in a line: Singlet oxygen (1O2) generation, DPBF scavenger under 635 nm laser. Particulars: 50 μg in 1.0 ml NMP, DPBF 10 μM, 635 nm laser 0.18 W/cm^2, absorbance at 415 nm. On the procedure:
Singlet Oxygen (^1O2) Generation. In a typical experiment, 50 μg of the monomer or Corrole-COF materials was suspended in 1 mL of N-methylpyrrolidone (NMP) (equilibrated with air at RT) containing 10 μM of singlet oxygen sensor 1,3-diphenylisobenzofuran (DPBF). The mixture solutions were irradiated under a 635 nm laser (0.18 W cm^−2). The characteristic UV-Vis absorption spectra of the DPBF were measured at 415 nm to determine the generation of ^1O2 every 1 min, in which the UV-Vis absorption spectra of samples were collected using a UV-1800 spectrophotometer (Shimadzu, Japan) with a 0.3 cm quartz cuvette at room temperature.
TPAPC-COF was evaluated for its ability to generate ^1O2 (FIGS. 8A and 7B). The photo-generating ^1O2 ability of TPAPC-COF under a 635 nm laser (0.18 W/cm^2) irradiation was investigated by using 1,3-diphenylisobenzofuran (DPBF) as a scavenger, and the process was monitored by time-dependent electronic absorption spectroscopy.

On to `Nc1ccc(-c2c3nc(c4ccc([nH]4)c(-c4ccc(N)cc4)c4ccc([nH]4)c(-c4ccc(N)cc4)c4ccc2[nH]4)C=C3)cc1` [H3TPAPC, 5,10,15-tris(p-aminophenyl)corrole], for which the “degradation efficiency (conversion) of DPBF” value is listed as 56%.
